In brackets after ≈: the same amount, converted by molar mass.
What was measured:
[1] = tested on: MRSA 33591; test: Minimal inhibitory concentration (MIC), broth microdilution; format: cell-based, methicillin-resistant Staphylococcus aureus; conditions: Staphylococcus aureus, read-out: MIC MRSA 33591
Experimental: (§1) Minimal inhibitory concentration (MICs) assays were performed using the broth microdilution method set forth in NCCLS guidelines (see, NCCLS. 2000. Methods for Dilution Antimicrobial Susceptibility Tests for Bacteria That Grow Aerobically; Approved Standard—Fifth Ed., Vol. 20, No. 2). Bacterial strains were obtained from the American Type Tissue Culture Collection (ATCC), Stanford University Hospital (SU), Kaiser Permanente Regional Laboratory in Berkeley (KPB), Massachusetts General Hospital (MGH), the Centers for Disease Control (CDC), the San Francisco Veterans' Administration Hospital (SFVA) or the University of California San Francisco Hospital (UCSF). Vancomycin-resistant enterococci were phenotyped as Van A or Van B based on their sensitivity to teicoplanin. Some vancomycin-resistant enterococci that had been genotyped as Van A, Van B, Van C1 or Van C2 were also obtained from the Mayo Clinic.
(§2) In this assay, cryopreserved bacterial cultures of reference and clinical strains were streaked for isolation on appropriate agar medium (i.e., Trypticase Soy Agar, Trypticase Soy Agar with defibrinated sheep erythrocytes, Brain Heart Infusion Agar, Chocolate Agar). Following incubation to allow formation of colonies, these plates were sealed with Parafilm® and stored refrigerated for up to two weeks. […] The MIC was read visually as the lowest concentration well with no bacterial growth. […]

[2] = tested on: MSSA 13709; test: as above; format: cell-based, methicillin-susceptible Staphylococcus aureus; conditions: Staphylococcus aureus, read-out: MIC MSSA 13709
Experimental: as §1, §2

[3] = tested on: MRSA 33591; test: Time-kill assay; format: cell-based, methicillin-resistant Staphylococcus aureus; conditions: MRSA 33591, in 24 hours
Experimental: This time-kill assay is a method for measuring the rate of bactericidal activity of a test compound. […] A rapid time-kill is desirable to quickly prevent bacterial colonization and reduce host tissue damage.
Bacteria were diluted in prewarmed media in shake flasks and incubated with shaking (200 rpm, 35° C.). At 0, 1, 4, and 24 hours samples were withdrawn from the flasks and bacteria were enumerated by plate counting. Subsequent to the initial sampling, a compound to be assayed was added to the shake flask culture. Plate counts at these intervals previous to and following addition of the compound were expressed graphically in a time-kill curve.

[4] = tested on: methicillin-susceptible Staphylococcus aureus (MSSA 13709) and methicillin-resistant Staphylococcus aureus (MRSA 33591); test: In vivo efficacy in neutropenic mice (thigh infection); set-up: species or system Male CD-1 mice; conditions: iv, 24 h, read-out: ED50 (dose required to produce 50% of the maximum reduction in thigh titre)
Experimental: Animals (Male CD-1 mice, 20-30 g) were acquired from Charles Rivers Laboratories (Gilroy, Calif.) and allowed access to food and water ad libitum. Neutropenia was induced via 200 mg/kg intraperitoneal (IP) injection of cyclophosphamide given four and two days prior to the inoculation of bacteria.
The organism used was either a susceptible or resistant strain of clinically relevant Gram-positive pathogens, such as methicillin-susceptible Staphylococcus aureus (MSSA 13709) and methicillin-resistant Staphylococcus aureus (MRSA 33591). The bacterial inoculum concentration was ˜10^6 CFU/mL. Animals were lightly anesthetized with isoflurane and […] of the bacterial inoculum was injected into the anterior thigh. One hour after the inoculation, animals were dosed intravenously with vehicle or the appropriate dose of the test compound. At 0 hours and 24 hours post-treatment, the animals were euthanized (CO2 asphyxiation) and the anterior and posterior thigh collected aseptically. The thigh was placed into 10 mL sterile saline and homogenized. Dilutions of the homogenate were plated onto triptic soy agar plates which were incubated overnight. The number of bacterial colonies on a given plate was multiplied by the dilution factor, divided by the thigh weight (in grams) and expressed as log CFU/g. […]

CN[C@H](CC(C)C)C(=O)N[C@H]1C(=O)N[C@@H](CC(N)=O)C(=O)N[C@H]2C(=O)N[C@H]3C(=O)N[C@H](C(=O)N[C@H](C(=O)O)c4cc(O)cc(O)c4-c4cc3ccc4O)[C@H](O)c3ccc(c(Cl)c3)Oc3cc2cc(c3O[C@@H]2O[C@H](CO)[C@@H](O)[C@H](O)[C@H]2O[C@H]2C[C@](C)(N)[C@H](O)[C@H](C)O2)Oc2ccc(cc2Cl)[C@H]1O [Vancomycin]
MIC [1]: 2 µg/mL (≈ 1.38 µM)
MIC [2]: 1 µg/mL (≈ 0.69 µM)
bactericidal concentration (≧3 log decrease in bacterial cell numbers) [3]: 4 μg/mL
ED50 [4]: 9 mg/kg

Reference: patent publication US8314217B2, “Cross-linked glycopeptide-cephalosporin antibiotics” (priority 2003, dated 2012)
